Data reported in patent US10590078B2, “Sodium channel blockers” (Daewoong Pharmaceutical Co., Ltd., priority 2015, dated 2020).
Like-named read-outs stand apart in the source and are kept apart here.

Target: human sodium ion channel 1.7 (hNav1.7) (Homo sapiens, UniProt Q15858)
Assay: Blocking effect against sodium ion channel Nav1.7, IonFlux16 auto patch clamp in hNav1.7 HEK293 cells
Type: cell-based
[1] = hNav1.7 HEK293 cells, inhibition of peak current after 50 seconds treatment, eight concentrations, read-out: IC50

Chain of human sodium ion channel 1.7 (hNav1.7) (Q15858 whole entry): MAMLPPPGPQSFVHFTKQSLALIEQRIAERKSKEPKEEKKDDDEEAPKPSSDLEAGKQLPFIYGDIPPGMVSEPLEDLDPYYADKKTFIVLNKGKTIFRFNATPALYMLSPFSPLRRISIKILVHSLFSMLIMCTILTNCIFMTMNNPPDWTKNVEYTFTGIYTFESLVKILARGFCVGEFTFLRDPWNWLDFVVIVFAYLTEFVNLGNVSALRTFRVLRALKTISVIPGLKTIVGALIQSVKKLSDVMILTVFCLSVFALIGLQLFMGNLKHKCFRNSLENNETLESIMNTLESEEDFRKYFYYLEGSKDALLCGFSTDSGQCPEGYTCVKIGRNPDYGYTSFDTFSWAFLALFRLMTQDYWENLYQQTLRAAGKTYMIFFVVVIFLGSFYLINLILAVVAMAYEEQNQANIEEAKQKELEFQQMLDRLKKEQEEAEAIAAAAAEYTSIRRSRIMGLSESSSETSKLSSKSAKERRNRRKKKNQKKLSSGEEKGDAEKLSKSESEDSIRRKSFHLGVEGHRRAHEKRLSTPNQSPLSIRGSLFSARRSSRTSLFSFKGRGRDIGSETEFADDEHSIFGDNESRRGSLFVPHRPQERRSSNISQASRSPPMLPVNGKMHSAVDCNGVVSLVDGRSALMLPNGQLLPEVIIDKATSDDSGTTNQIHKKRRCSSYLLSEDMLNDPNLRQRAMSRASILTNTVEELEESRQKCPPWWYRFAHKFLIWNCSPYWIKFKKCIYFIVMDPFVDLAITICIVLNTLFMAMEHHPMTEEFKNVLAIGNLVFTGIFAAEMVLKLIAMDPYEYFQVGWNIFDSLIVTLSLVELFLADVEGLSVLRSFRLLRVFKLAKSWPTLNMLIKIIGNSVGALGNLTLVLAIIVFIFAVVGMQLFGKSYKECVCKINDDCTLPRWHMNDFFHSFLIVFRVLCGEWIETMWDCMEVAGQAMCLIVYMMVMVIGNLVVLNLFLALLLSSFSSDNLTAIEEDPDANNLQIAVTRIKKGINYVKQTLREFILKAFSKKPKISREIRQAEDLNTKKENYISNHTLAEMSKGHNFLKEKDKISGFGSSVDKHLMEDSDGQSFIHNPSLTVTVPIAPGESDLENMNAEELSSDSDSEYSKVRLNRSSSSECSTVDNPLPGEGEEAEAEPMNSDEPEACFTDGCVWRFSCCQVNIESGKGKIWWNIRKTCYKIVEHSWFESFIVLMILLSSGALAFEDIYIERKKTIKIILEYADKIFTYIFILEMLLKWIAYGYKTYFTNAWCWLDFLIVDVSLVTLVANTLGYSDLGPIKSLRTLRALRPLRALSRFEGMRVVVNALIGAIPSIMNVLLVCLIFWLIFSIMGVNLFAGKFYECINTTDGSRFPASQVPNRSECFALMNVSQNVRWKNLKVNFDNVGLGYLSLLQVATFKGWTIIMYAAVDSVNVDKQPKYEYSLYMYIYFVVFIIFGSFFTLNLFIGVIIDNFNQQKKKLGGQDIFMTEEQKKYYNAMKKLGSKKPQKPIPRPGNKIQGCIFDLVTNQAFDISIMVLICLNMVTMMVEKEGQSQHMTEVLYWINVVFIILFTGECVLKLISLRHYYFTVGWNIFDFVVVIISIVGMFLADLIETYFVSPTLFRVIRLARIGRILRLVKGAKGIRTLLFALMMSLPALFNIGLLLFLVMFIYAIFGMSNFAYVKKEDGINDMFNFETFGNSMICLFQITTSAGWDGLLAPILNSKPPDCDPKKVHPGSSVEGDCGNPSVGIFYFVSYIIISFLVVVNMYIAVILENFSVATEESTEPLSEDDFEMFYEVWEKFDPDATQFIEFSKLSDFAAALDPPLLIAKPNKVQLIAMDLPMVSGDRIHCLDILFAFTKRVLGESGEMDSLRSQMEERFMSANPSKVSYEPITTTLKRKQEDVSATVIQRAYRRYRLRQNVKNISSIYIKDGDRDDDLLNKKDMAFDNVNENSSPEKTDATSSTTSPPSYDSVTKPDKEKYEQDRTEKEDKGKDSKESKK

Structure (SMILES): CS(=O)(=O)NC(=O)c1cc(Cl)c(-n2nc(-c3ccc(F)cc3)c3cc(Cl)ccc32)cc1F [Example 55, 5-chloro-4-(5-chloro-3-(4-fluorophenyl)-1H-indazol-1-yl)-2-fluoro-N-(methylsulfonyl)benzamide]
- IC50 [1]: 51 nM

Structure (SMILES): CS(=O)(=O)NC(=O)c1cc(Cl)c(-n2nc(-c3ccc(F)cc3F)c3cc(Cl)ccc32)cc1F [Example 56, 5-chloro-4-(5-chloro-3-(2,4-difluorophenyl)-1H-indazol-1-yl)-2-fluoro-N-(methylsulfonyl)benzamide]
- IC50 [1]: 40 nM

Structure (SMILES): COc1ncccc1-c1nn(-c2cc(F)c(C(=O)NS(C)(=O)=O)cc2Cl)c2ccc(Cl)cc12 [Example 57, 5-chloro-4-(5-chloro-3-(2-methoxypyridin-3-yl)-1H-indazol-1-yl)-2-fluoro-N-(methylsulfonyl)benzamide]
- IC50 [1]: 123 nM

Structure (SMILES): COc1ccccc1-c1nn(-c2cc(F)c(C(=O)NS(C)(=O)=O)cc2Cl)c2ccc(Cl)cc12 [Example 58, 5-chloro-4-(5-chloro-3-(2-methoxyphenyl)-1H-indazol-1-yl)-2-fluoro-N-(methylsulfonyl)benzamide]
- IC50 [1]: 98 nM

Structure (SMILES): COc1ccc(-c2nn(-c3cc(F)c(C(=O)NS(C)(=O)=O)cc3Cl)c3ccc(Cl)cc23)cc1 [Example 59, 5-chloro-4-(5-chloro-3-(4-methoxyphenyl)-1H-indazol-1-yl)-2-fluoro-N-(methylsulfonyl)benzamide]
- IC50 [1]: 108 nM

Structure (SMILES): CS(=O)(=O)NC(=O)c1cc(Cl)c(-n2nc(-c3ccccc3C#N)c3cc(Cl)ccc32)cc1F [Example 60, 5-chloro-4-(5-chloro-3-(2-cyanophenyl)-1H-indazol-1-yl)-2-fluoro-N-(methylsulfonyl)benzamide]
- IC50 [1]: > 10000 nM

Structure (SMILES): CS(=O)(=O)NC(=O)c1cc(Cl)c(-n2nc(-c3cccc(C#N)c3)c3cc(Cl)ccc32)cc1F [Example 61, 5-chloro-4-(5-chloro-3-(3-cyanophenyl)-1H-indazol-1-yl)-2-fluoro-N-(methylsulfonyl)benzamide]
- IC50 [1]: 96 nM

Structure (SMILES): CS(=O)(=O)NC(=O)c1cc(Cl)c(-n2nc(-c3ccc(C#N)cc3)c3cc(Cl)ccc32)cc1F [Example 62, 5-chloro-4-(5-chloro-3-(4-cyanophenyl)-1H-indazol-1-yl)-2-fluoro-N-(methylsulfonyl)benzamide]
- IC50 [1]: 554 nM

Structure (SMILES): CS(=O)(=O)NC(=O)c1cc(Cl)c(-n2nc(-c3ccccc3C(F)(F)F)c3cc(Cl)ccc32)cc1F [Example 63, 5-chloro-4-(5-chloro-3-(2-(trifluoromethyl)phenyl)-1H-indazol-1-yl)-2-fluoro-N-(methylsulfonyl)benzamide]
- IC50 [1]: 41 nM

Structure (SMILES): CS(=O)(=O)NC(=O)c1cc(Cl)c(-n2nc(-c3cccc(C(F)(F)F)c3)c3cc(Cl)ccc32)cc1F [Example 64, 5-chloro-4-(5-chloro-3-(3-(trifluoromethyl)phenyl)-1H-indazol-1-yl)-2-fluoro-N-(methylsulfonyl)benzamide]
- IC50 [1]: 94 nM

Structure (SMILES): CS(=O)(=O)NC(=O)c1cc(Cl)c(-n2nc(-c3ccc(C(F)(F)F)cc3)c3cc(Cl)ccc32)cc1F [Example 65, 5-chloro-4-(5-chloro-3-(4-(trifluoromethyl)phenyl)-1H-indazol-1-yl)-2-fluoro-N-(methylsulfonyl)benzamide]
- IC50 [1]: 28 nM

Structure (SMILES): CS(=O)(=O)NC(=O)c1cc(Cl)c(-n2nc(-c3ccc(Cl)cc3F)c3cc(Cl)ccc32)cc1F [Example 66, 5-chloro-4-(5-chloro-3-(4-chloro-2-fluorophenyl)-1H-indazol-1-yl)-2-fluoro-N-(methylsulfonyl)benzamide]
- IC50 [1]: 16 nM

Structure (SMILES): CS(=O)(=O)NC(=O)c1cc(Cl)c(-n2nc(-c3ccc(Cl)cc3)c3cc(Cl)ccc32)cc1F [Example 67, 5-chloro-4-(5-chloro-3-(4-chlorophenyl)-1H-indazol-1-yl)-2-fluoro-N-(methylsulfonyl)benzamide]
- IC50 [1]: 33 nM

Structure (SMILES): CS(=O)(=O)NC(=O)c1cc(Cl)c(-n2nc(-c3ccnc(F)c3)c3cc(Cl)ccc32)cc1F [Example 68, 5-chloro-4-(5-chloro-3-(2-fluoropyridin-4-yl)-1H-indazol-1-yl)-2-fluoro-N-(methylsulfonyl)benzamide]
- IC50 [1]: 590 nM

Structure (SMILES): CS(=O)(=O)NC(=O)c1cc(Cl)c(-n2nc(-c3cc(Cl)ccc3F)c3cc(Cl)ccc32)cc1F [Example 69, 5-chloro-4-(5-chloro-3-(5-chloro-2-fluorophenyl)-1H-indazol-1-yl)-2-fluoro-N-(methylsulfonyl)benzamide]
- IC50 [1]: 37 nM

Structure (SMILES): CS(=O)(=O)NC(=O)c1cc(Cl)c(-n2nc(-c3ccccc3Cl)c3cc(Cl)ccc32)cc1F [Example 71, 5-chloro-4-(5-chloro-3-(2-chlorophenyl)-1H-indazol-1-yl)-2-fluoro-N-(methylsulfonyl)benzamide]
- IC50 [1]: 48 nM

Structure (SMILES): CS(=O)(=O)NC(=O)c1cc(Cl)c(-n2nc(-c3cccc(Cl)c3)c3cc(Cl)ccc32)cc1F [Example 72, 5-chloro-4-(5-chloro-3-(3-chlorophenyl)-1H-indazol-1-yl)-2-fluoro-N-(methylsulfonyl)benzamide]
- IC50 [1]: 61 nM

Structure (SMILES): CS(=O)(=O)NC(=O)c1cc(Cl)c(-n2nc(-c3cc(F)cc(Cl)c3)c3cc(Cl)ccc32)cc1F [Example 73, 5-chloro-4-(5-chloro-3-(3-chloro-5-fluorophenyl)-1H-indazol-1-yl)-2-fluoro-N-(methylsulfonyl)benzamide]
- IC50 [1]: 30 nM

Structure (SMILES): CS(=O)(=O)NC(=O)c1cc(Cl)c(-n2nc(-c3ccc(F)cc3Cl)c3cc(Cl)ccc32)cc1F [Example 74, 5-chloro-4-(5-chloro-3-(2-chloro-4-fluorophenyl)-1H-indazol-1-yl)-2-fluoro-N-(methylsulfonyl)benzamide]
- IC50 [1]: 20 nM

Structure (SMILES): CS(=O)(=O)NC(=O)c1cc(Cl)c(-n2nc(-c3ccc(F)c(F)c3)c3cc(Cl)ccc32)cc1F [Example 75, 5-chloro-4-(5-chloro-3-(3,4-difluorophenyl)-1H-indazol-1-yl)-2-fluoro-N-(methylsulfonyl)benzamide]
- IC50 [1]: 180 nM

Structure (SMILES): CS(=O)(=O)NC(=O)c1cc(Cl)c(-n2nc(-c3cc(F)ccc3F)c3cc(Cl)ccc32)cc1F [Example 76, 5-chloro-4-(5-chloro-3-(2,5-difluorophenyl)-1H-indazol-1-yl)-2-fluoro-N-(methylsulfonyl)benzamide]
- IC50: 90 nM

Structure (SMILES): CS(=O)(=O)NC(=O)c1cc(Cl)c(-n2nc(-c3cc(F)c(F)c(F)c3)c3cc(Cl)ccc32)cc1F [Example 77, 5-chloro-4-(5-chloro-3-(3,4,5-trifluorophenyl)-1H-indazol-1-yl)-2-fluoro-N-(methylsulfonyl)benzamide]
- IC50: 20 nM

Structure (SMILES): CS(=O)(=O)NC(=O)c1cc(Cl)c(-n2nc(-c3c(F)cccc3Cl)c3cc(Cl)ccc32)cc1F [Example 78, 5-chloro-4-(5-chloro-3-(2-chloro-6-fluorophenyl)-1H-indazol-1-yl)-2-fluoro-N-(methylsulfonyl)benzamide]
- IC50 [1]: 130 nM

Structure (SMILES): CS(=O)(=O)NC(=O)c1cc(Cl)c(-n2nc(-c3cccc(Cl)c3F)c3cc(Cl)ccc32)cc1F [Example 79, 5-chloro-4-(5-chloro-3-(3-chloro-2-fluorophenyl)-1H-indazol-1-yl)-2-fluoro-N-(methylsulfonyl)benzamide]
- IC50: 70 nM

Structure (SMILES): CS(=O)(=O)NC(=O)c1cc(Cl)c(-n2nc(-c3ccc(Cl)c(F)c3)c3cc(Cl)ccc32)cc1F [Example 80, 5-chloro-4-(5-chloro-3-(4-chloro-3-fluorophenyl)-1H-indazol-1-yl)-2-fluoro-N-(methylsulfonyl)benzamide]
- IC50 [1]: 80 nM
